The source made the active and inactive calls.
Columns and labels:
[1] = HEK-293T viability loss after treatment – luminescence, T-cell screen hits, cytotoxicity control for TCR NF-kB inhibitor project, dose response (AID 489026); format: functional, cell-based;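 also: cells exposed to compound about 14 hours before the viability readout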
[2] = Luminescence Cell-Based Dose Response HTS to Identify Inhibitors of 5'UTR Stem-Loop Driven Prion Protein mRNA Translation in H4 Neuroglioblastoma Cells. [Related pubchem assays: 1827 (Project Summary), 1813 (Primary HTS)]; format: functional
[3] = luciferase reporter signal suppression in cells – H4 neuroglioma cells, luminescence, dose response (AID 1990); format: functional, cell-based
[4] = alpha-synuclein stem-loop luciferase translation blockers – H4 neuroglioma cells, luminescence, confirmation (AID 1988); format: functional, cell-based
[5] = system: Streptococcus sp. 'group A'; assay: Streptococcus pyogenes SK(-)GAS viability under kanamycin – luminescence, BacTiterGlo, confirmation, counter-screen for streptokinase expression inhibitor project, dose response (AID 1900); format: functional, organism-based
[6] = target: Peroxisome proliferator-activated receptor gamma/Nuclear receptor coactivator 2 (Homo sapiens, UniProt P37231); assay: (§1) TR-FRET dose response biochemical High Throughput Screening assay for agonists of the steroid receptor coactivator 2 (SRC-2) recruitment by the peroxisome proliferator-activated receptor gamma (PPAR gamma): non-selective agonists. [Related pubchem assays: 1297, 1032 ]; format: functional
[7] = target: Peroxisome proliferator-activated receptor gamma/Nuclear receptor coactivator 1 (Homo sapiens, UniProt P37231); assay: as §1, with “1 (SRC-1)” for “2 (SRC-2)”, “assays (depositor defined):AID1300, AID1808, AID504735, AID631]” for “assays: 1297, 1032 ]”; format: protein assay
Chain of Peroxisome proliferator-activated receptor gamma/Nuclear receptor coactivator 1 (P37231 whole entry): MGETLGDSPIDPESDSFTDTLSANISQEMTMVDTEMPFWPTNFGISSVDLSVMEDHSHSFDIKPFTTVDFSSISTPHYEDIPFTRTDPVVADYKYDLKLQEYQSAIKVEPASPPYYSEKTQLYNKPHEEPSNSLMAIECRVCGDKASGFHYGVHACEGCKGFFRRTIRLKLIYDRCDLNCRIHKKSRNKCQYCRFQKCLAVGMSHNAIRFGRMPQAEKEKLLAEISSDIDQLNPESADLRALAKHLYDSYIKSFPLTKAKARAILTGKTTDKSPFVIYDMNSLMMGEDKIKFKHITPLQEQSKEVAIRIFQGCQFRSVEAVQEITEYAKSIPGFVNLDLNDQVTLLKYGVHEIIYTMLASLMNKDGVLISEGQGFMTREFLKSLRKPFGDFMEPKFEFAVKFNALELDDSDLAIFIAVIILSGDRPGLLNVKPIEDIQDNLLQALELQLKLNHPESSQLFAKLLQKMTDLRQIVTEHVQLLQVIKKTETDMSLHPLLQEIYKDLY
Chain of Peroxisome proliferator-activated receptor gamma/Nuclear receptor coactivator 1 (Q15788 whole entry, further chain): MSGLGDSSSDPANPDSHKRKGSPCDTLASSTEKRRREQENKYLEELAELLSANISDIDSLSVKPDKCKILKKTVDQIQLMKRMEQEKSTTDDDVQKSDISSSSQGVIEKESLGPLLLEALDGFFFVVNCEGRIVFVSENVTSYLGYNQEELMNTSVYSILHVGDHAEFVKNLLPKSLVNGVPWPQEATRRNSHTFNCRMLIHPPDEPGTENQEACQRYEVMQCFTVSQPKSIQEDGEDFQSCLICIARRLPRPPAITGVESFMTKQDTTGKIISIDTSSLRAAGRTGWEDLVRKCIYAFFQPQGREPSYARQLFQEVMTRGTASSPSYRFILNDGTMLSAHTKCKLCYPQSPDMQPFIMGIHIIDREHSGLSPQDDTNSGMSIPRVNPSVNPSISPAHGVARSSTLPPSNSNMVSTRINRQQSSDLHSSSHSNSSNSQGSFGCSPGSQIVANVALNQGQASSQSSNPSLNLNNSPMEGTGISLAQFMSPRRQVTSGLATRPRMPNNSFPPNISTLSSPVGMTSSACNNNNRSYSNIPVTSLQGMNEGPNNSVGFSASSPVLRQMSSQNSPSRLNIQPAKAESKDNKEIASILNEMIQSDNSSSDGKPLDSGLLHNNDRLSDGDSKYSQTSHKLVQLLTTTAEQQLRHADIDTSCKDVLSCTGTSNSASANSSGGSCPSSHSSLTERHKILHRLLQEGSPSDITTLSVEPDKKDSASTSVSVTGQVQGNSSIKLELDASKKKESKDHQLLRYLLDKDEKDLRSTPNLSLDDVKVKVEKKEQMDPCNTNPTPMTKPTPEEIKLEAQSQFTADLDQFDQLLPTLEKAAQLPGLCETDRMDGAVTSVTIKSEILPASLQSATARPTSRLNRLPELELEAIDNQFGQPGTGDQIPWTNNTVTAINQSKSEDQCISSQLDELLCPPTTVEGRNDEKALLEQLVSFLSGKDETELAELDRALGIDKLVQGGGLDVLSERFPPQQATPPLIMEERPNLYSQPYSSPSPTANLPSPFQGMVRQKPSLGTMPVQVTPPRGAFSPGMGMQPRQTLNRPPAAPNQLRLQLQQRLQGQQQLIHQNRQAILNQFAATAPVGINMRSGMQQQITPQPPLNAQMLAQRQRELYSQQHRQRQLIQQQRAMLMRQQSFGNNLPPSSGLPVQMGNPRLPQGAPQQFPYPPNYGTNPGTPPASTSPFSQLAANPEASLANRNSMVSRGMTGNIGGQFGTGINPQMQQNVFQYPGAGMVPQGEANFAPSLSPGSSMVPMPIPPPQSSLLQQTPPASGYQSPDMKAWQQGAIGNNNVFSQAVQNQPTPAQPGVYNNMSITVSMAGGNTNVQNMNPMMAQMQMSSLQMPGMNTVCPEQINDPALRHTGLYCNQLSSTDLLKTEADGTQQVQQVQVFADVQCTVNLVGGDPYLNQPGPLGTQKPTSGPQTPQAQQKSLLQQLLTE

[8] = target: Peroxisome proliferator-activated receptor gamma/Nuclear receptor coactivator 3 (Homo sapiens, UniProt P37231); assay: as §1, with “3 (SRC-3)” for “2 (SRC-2)”, “1301 (Confirmation screen.), 1048 (Primary screen.)]” for “1297, 1032 ]”; format: functional
Chain of Peroxisome proliferator-activated receptor gamma/Nuclear receptor coactivator 3 (P37231 whole entry): as the sequence (P37231 whole entry) above
Chain of Peroxisome proliferator-activated receptor gamma/Nuclear receptor coactivator 3 (Q9Y6Q9 whole entry, further chain): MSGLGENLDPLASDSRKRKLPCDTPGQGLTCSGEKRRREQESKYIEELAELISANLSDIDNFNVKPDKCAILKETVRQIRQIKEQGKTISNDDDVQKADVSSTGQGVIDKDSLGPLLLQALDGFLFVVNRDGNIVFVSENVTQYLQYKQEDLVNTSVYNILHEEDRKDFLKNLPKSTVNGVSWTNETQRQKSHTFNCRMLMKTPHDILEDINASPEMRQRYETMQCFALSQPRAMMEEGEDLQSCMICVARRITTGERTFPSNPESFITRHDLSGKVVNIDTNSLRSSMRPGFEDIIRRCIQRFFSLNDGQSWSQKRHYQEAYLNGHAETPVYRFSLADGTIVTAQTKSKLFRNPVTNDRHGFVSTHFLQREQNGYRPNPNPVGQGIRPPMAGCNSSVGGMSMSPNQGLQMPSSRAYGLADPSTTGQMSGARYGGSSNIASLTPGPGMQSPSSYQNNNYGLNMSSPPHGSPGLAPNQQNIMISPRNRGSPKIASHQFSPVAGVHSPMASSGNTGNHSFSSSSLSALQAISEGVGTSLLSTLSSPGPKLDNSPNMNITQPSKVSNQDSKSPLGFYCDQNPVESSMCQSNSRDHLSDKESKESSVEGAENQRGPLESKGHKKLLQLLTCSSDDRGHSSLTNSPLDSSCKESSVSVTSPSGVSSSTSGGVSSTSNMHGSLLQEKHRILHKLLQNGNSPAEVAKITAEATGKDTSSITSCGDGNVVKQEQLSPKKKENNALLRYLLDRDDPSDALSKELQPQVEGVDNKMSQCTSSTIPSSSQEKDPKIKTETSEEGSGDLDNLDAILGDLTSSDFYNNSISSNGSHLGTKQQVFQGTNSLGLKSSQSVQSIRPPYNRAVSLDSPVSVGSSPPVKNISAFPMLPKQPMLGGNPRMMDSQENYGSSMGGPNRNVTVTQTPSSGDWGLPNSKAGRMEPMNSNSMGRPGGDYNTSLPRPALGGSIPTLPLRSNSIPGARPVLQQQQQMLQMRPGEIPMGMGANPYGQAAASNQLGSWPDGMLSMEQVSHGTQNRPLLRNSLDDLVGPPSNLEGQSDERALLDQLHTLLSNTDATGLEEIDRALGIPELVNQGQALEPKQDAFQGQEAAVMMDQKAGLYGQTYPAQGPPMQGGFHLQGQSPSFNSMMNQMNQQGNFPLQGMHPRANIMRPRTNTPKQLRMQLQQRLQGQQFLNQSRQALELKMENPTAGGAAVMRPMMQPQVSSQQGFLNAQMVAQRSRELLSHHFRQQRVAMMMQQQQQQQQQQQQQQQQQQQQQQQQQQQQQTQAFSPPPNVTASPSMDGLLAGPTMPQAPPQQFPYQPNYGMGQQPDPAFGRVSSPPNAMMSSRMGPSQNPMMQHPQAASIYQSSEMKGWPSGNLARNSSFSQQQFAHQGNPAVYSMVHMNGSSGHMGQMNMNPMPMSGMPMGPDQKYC

Streptokinase A = target: T1, Streptokinase A (Streptococcus pyogenes serotype M1, UniProt P10520); assay: viability-normalized secreted streptokinase activity reduction – plasminogen activation absorbance, OD405, dose response (AID 1914); format: functional, Streptococcus pyogenes M1 GAS;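 also: secreted streptokinase activity via plasminogen activation per viability signal from cell pellet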
T1 sequence (P10520 whole entry): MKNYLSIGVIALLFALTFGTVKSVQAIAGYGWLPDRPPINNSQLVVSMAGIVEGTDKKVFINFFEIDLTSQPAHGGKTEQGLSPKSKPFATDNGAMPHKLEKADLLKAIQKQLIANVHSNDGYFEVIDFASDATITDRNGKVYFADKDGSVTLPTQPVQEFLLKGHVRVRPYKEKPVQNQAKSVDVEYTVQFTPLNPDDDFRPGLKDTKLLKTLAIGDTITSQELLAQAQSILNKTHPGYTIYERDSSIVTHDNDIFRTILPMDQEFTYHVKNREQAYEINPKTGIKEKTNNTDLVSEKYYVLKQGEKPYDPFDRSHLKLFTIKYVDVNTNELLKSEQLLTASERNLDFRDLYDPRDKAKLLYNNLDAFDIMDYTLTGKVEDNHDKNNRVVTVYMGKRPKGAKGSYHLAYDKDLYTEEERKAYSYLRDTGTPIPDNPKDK

Streptococcus = assay: GAS UMAA2166 growth inhibition – luminescence, BacTiterGlo, counter-screen for streptokinase expression inhibitor project, dose response (AID 1915); format: functional, organism-based;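 also: potency for reduction of bacterial viability or growth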
[9] = Trypanosoma cruzi growth suppression in host cells – NIH3T3 host cells, beta-gal luminescence, confirmation (AID 2044); format: functional, cell-based;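 also: intracellular parasites grown in NIH/3T3 mouse fibroblasts as host cells; luminescent beta-galactosidase reporter signal from transgenic T. cruzi replicating inside host cells; inhibitors lower the luminescence signal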
cells [10] = format: functional, cell-based
[11] = Luminescence Cell-Based Dose Retest to Confirm Inhibitors of Cancer Stem Cells. [Related pubchem assays (depositor defined):AID2717, AID2721]; format: functional; details: Homo sapiens
INS1 = assay: INS-1E survival protection against cytokine death – cell-based, luminescence, retest, dose response (AID 449756); format: functional; details: Rattus norvegicus;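 also: cell death triggered by IL-1 beta plus TNF-alpha plus IFN-gamma mixture; protective hits raise ATP signal compared with cytokine alone wells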
[12] = NIH3T3 cell viability loss – ATP luminescence, mouse fibroblasts, counter-screen, dose response (AID 2010); format: functional, cell-based;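 also: cells exposed to compound for about 90 hours before reading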
cells [13] = format: functional, cell-based; remark: listed apart in the source
[14] = target: T2, Microphthalmia-associated transcription factor (Homo sapiens, UniProt O75030); assay: reducers of TRPM1 reporter luminescence, concentration series – cell-based, SK-MEL-5, cherry-picked, set 3, MITF inhibitor project, dose response (AID 493073); format: functional;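 also: SK-MEL-5 melanoma cells with luciferase driven by the MITF target TRPM1 promoter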
T2 sequence (O75030 whole entry): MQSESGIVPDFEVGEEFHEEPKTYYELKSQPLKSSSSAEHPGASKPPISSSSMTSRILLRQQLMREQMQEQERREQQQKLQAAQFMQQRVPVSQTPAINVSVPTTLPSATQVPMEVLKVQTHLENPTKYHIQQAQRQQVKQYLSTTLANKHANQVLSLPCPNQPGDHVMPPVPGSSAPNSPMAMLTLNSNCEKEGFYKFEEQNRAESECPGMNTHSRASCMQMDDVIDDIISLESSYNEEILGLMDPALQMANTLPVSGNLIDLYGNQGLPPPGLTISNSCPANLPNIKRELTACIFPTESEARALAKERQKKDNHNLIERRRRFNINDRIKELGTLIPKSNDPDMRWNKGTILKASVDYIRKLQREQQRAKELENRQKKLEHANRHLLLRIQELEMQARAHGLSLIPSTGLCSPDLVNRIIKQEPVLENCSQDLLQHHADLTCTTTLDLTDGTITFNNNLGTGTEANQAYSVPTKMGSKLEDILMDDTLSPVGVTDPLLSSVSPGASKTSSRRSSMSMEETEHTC

[15] = target: T3, Short transient receptor potential channel 4 (Mus musculus, UniProt Q9QUQ5); assay: block of DAMGO-driven TRPC4 calcium entry – cell-based, HEK293 TRPC4/mu-opioid, Fluo-4 calcium, dose response (AID 434942); format: functional;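 also: potency of inhibitors blocking the TRPC4 calcium response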
T3 sequence (Q9QUQ5 whole entry): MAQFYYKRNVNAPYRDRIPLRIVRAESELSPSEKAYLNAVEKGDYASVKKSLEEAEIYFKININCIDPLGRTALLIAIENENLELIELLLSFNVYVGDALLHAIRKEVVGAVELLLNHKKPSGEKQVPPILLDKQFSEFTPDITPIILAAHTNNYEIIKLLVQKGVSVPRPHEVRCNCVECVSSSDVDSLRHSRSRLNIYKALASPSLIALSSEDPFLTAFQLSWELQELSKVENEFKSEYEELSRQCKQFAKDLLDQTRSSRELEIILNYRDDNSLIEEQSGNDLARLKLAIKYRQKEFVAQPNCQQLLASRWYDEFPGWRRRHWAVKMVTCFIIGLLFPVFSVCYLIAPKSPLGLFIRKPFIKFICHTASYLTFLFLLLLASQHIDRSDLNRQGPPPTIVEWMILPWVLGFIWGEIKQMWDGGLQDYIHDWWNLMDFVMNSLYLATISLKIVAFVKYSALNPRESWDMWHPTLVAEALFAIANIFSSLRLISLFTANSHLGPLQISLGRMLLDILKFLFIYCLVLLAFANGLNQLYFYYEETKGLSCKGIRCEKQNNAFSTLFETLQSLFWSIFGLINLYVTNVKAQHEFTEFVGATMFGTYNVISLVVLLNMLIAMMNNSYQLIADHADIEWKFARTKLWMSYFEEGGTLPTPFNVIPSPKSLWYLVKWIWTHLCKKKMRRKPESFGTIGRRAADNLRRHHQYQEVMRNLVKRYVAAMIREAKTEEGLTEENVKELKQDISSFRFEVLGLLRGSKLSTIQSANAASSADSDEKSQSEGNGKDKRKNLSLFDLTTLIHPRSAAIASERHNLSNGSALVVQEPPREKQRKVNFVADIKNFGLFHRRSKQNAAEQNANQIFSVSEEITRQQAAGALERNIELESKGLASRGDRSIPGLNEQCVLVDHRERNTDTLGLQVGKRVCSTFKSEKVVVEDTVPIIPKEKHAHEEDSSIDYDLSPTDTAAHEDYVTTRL

[16] = viability of PTEN-deleted HCT116 cells – cell-based, HCT116 PTEN knockout, dose response (AID 1047); format: functional;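 also: HCT116 colon tumor cells with PTEN knocked out; cells exposed to compound for 60 hours before readout; potency for loss of cell viability measured by luminescence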
[17] = viability of HCT116 lacking mutant beta-catenin – cell-based, human colon tumor, dose response (AID 1045); format: functional;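 also: HCT116 colon tumor cells with beta catenin knocked out; cells exposed to compound for 60 hours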
Paired box protein Pax-8 = Paired box protein Pax-8 (Homo sapiens, UniProt Q06710); assay: PAX8 transcriptional activity inhibition in RMG-I – RMG-I cells, luciferase, cherry-pick, dose response (AID 687027); format: functional, cell-based;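 also: luciferase reporter driven by Pax8 target thyroperoxidase promoter measured by SteadyGlo luminescence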
Chain of Paired box protein Pax-8 (Q06710 whole entry): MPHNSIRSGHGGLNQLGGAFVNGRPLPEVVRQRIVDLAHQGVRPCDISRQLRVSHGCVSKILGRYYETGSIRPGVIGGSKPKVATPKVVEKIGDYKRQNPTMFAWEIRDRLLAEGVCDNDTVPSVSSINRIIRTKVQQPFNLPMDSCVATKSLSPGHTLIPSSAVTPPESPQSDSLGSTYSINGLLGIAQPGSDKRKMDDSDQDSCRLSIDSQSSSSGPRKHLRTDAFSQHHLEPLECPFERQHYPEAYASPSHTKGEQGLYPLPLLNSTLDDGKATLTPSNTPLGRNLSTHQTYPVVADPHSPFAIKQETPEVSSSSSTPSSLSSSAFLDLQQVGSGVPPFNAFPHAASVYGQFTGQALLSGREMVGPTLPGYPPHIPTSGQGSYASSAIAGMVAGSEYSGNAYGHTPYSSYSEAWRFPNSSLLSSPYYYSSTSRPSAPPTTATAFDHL

Melanocortin receptor 4 = Melanocortin receptor 4 (Homo sapiens, UniProt P32245); assay: inhibitors of MC4R cAMP signaling – cell-based, TR-FRET, biased antagonists, dose response (AID 602298); format: functional;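 also: antagonist potency against agonist-stimulated cAMP production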
Chain of Melanocortin receptor 4 (P32245 whole entry): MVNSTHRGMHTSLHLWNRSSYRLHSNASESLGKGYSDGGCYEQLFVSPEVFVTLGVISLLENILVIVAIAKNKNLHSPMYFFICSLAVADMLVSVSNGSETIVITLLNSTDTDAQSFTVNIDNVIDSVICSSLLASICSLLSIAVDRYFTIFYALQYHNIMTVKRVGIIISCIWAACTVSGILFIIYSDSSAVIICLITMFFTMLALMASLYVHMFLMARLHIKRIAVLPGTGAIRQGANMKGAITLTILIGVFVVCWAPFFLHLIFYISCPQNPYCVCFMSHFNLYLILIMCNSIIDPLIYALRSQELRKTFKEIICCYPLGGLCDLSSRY

Protein skinhead-1 = target: T4, Protein skinhead-1 (Caenorhabditis elegans, UniProt P34707); format: functional
T4 sequence (P34707 whole entry): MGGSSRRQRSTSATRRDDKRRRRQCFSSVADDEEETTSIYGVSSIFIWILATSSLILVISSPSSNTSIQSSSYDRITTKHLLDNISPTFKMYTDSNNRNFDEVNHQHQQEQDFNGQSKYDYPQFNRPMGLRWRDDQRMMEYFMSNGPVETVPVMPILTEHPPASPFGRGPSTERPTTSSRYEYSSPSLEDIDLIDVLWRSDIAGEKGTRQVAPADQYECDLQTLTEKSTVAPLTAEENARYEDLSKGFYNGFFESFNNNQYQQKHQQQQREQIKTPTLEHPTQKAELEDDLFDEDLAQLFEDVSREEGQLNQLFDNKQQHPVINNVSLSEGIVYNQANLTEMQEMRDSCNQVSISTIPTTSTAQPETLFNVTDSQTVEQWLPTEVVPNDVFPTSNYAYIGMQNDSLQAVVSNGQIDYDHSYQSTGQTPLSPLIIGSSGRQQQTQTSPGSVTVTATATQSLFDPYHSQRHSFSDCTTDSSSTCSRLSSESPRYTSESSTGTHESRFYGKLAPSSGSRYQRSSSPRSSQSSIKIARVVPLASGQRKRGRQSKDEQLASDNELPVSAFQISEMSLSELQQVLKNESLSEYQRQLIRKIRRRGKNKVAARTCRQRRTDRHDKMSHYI

[18] = cAMP pathway inhibition in counterscreen cell line – TR-FRET cAMP detection, counter-screen for MC4R biased antagonist project, dose response (AID 602305); format: functional, cell-based;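 also: U2OS cells stimulated with forskolin near its EC80 as the cAMP inducer; potency is for inhibition of forskolin-stimulated cAMP signaling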

With CC1CCN(c2c(NCc3ccc(C(=O)N4CCc5ccccc54)cc3)c(=O)c2=O)CC1 the IC50 [1] was > 80 µM (inactive), the EC50 [2] was 12.3 µM (active) and the EC50 [3] was > 60 µM (not active). For the same compound, the EC50 [4] was 8.86 µM (active).
For CSc1c(SCc2ccccc2)cnn(Cc2ccccc2)c1=O, the EC50 [5] was 3.38 µM (active), the EC50 [6] was 8.09 µM (active) and the EC50 [7] was 2.68 µM (active). For the same compound, the EC50 [8] was > 79.4 µM (not active), the EC50 (Streptokinase A) was > 150 µM (not active) and the EC50 (Streptococcus) was 34.3 µM (active).
For CSc1oc(-c2ccccc2)nc1S(=O)(=O)c1ccc(C)cc1, the EC50 [6] was > 79.4 µM (not active), the EC50 [7] was > 79.4 µM (inactive) and the EC50 [8] was > 79.4 µM (not active).
With O=C(N/N=C\c1cc(Br)ccc1O)c1ccc(S(=O)(=O)N2CCCCC2)cc1 the EC50 [9] was 0.758 µM (active), the EC50 (cells [10]) was > 350 µM (not active) and the AC50 [11] was 1.8 µM (active). For the same compound, the AC50 (INS1) was 0.809 µM (active), the EC50 [12] was > 60 µM (not active) and the EC50 (cells [13]) was > 350 µM (not active). The AC50 [14] was 1.78 µM (active).
For COCC(C)NC(C(=O)Nc1ccc(Cl)c([N+](=O)[O-])c1)c1ccccc1 (stereo unspecified), the EC50 [15] was 5.96 µM (active).
With Cc1cc(NCc2ccccc2)nc(N2CCOCC2)n1 the EC50 [15] was 4.73 µM (active).
For Cc1ccc(NC(=O)/C=C/c2ccc([N+](=O)[O-])s2)c(C)c1, the AC50 [11] was 1.3 µM (active), the AC50 (INS1) was 4.69 µM (active) and the EC50 [16] was 1.03 µM (active). For the same compound, the EC50 [17] was 1 µM (active), the AC50 [14] was 4.64 µM (active) and the AC50 (Paired box protein Pax-8) was 3.16 µM (active).
With Cc1nnc(-c2cccc(Br)c2)c2cn(-c3cccc(Br)c3)nc12 the IC50 (Melanocortin receptor 4) was > 64.6 µM (inactive), the EC50 [9] was 1.65 µM (active) and the IC50 (Protein skinhead-1) was > 100 µM (inactive). For the same compound, the IC50 [18] was > 64.6 µM (inactive) and the EC50 [12] was > 60 µM (not active).
For C=CCSC1=Nc2cc(OC)c(OC)cc2C2=NC(=O)CN12, the EC50 [6] was > 79.4 µM (not active), the EC50 [7] was > 79.4 µM (inactive) and the EC50 [8] was > 79.4 µM (not active).

— ChEMBL document CHEMBL1201862, “PubChem BioAssay data set” (2004)
